pEC50: −log10 of the molar value. Read-outs that look alike come from different tables or passages of the source.
Key:
[1] = molecular target: human CB1 receptor (hCB1) (Homo sapiens, UniProt P21554); experiment: cell-based; type: cell-based
Summary of the method: (§1)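 First, cells in IBMX-containing HEPES-buffered HBSS are raised to elevated cAMP with 2-8 μM NKH-477 for 30 min. Data are normalised to the forskolin and forskolin + 1 μM CP55,940 controls.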

[2] = molecular target: T1, rat CB2 receptor (rCB2) (Rattus norvegicus, UniProt Q9QZN9); experiment: cell-based; type: cell-based; settings: for +/− RCB2: agonist or inverse agonist at rCB2
T1 sequence (Q9QZN9 1-360): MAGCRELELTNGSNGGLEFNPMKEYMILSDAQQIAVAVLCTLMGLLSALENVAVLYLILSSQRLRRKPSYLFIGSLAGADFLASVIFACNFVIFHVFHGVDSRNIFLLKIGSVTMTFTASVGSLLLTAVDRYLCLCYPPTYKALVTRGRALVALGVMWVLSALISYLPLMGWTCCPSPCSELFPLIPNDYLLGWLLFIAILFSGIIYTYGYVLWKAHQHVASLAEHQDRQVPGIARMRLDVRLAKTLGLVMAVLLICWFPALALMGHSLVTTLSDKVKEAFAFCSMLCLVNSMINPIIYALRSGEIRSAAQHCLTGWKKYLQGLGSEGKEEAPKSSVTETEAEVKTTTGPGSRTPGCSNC
Summary of the method: as §1

human CB1 receptor (hCB1), sequence (P21554 whole entry): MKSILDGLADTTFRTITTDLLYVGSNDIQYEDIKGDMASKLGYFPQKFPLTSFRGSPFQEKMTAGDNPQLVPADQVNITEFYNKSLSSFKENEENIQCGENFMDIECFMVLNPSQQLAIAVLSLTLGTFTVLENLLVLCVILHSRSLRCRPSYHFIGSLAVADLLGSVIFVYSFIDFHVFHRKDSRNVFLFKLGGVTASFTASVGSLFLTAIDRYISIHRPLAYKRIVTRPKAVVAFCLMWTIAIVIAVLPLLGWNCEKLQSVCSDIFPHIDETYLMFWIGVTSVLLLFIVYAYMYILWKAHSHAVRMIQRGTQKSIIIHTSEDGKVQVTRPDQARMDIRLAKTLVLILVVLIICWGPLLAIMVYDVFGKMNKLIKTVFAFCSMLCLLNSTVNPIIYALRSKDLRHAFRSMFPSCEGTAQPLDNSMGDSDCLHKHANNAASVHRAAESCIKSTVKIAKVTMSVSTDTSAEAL

Row | Structure (SMILES) | +/− RCB2 [2] | pEC50 [1] | pEC50 [2] | also measured
1 | CNC(=O)[C@@H](NC(=O)c1nc(/C=C/C(C)(C)C)n2c1CN(C)CCC2)C(C)(C)C [Compound 397, (S,E)-N-(3,3-dimethyl-1-(methylamino)-1-oxobutan-2-yl)-3-(3,3-dimethylbut-1-enyl)-8-methyl-6,7,8,9-tetrahydro-5H-imidazo[1,5-a][1,4]diazepine-1-carboxamide] | + |  |  | +/− HCB1 ([1]; agonist or inverse agonist at hCB1): +
2 | CNC(=O)[C@@H](NC(=O)c1nc(/C=C/COC)n2c1CN(C)CCC2)C(C)(C)C [Compound 398, (S,E)-N-(3,3-dimethyl-1-(methylamino)-1-oxobutan-2-yl)-3-(3-methoxyprop-1-enyl)-8-methyl-6,7,8,9-tetrahydro-5H-imidazo[1,5-a][1,4]diazepine-1-carboxamide] | + | < 5.00 |  | 
3 | CNC(=O)[C@@H](NC(=O)c1nc(-c2ccccc2C(F)(F)F)n2c1CN(C)CCC2)C(C)(C)C [Compound 399, (S)-N-(3,3-dimethyl-1-(methylamino)-1-oxobutan-2-yl)-8-methyl-3-(2-(trifluoromethyl)phenyl)-6,7,8,9-tetrahydro-5H-imidazo[1,5-a][1,4]diazepine-1-carboxamide] | + | < 5.00 |  | 
4 | CCCC/C=C/c1nc(C(=O)N[C@H](C(=O)NC)C(C)(C)C)c2n1CCCN(C)C2 [Compound 400, (S,E)-N-(3,3-dimethyl-1-(methylamino)-1-oxobutan-2-yl)-3-(hex-1-enyl)-8-methyl-6,7,8,9-tetrahydro-5H-imidazo[1,5-a][1,4]diazepine-1-carboxamide] | + | < 5.00 |  | 
5 | CNC(=O)[C@@H](NC(=O)c1nc(-c2ccc(C(=O)N3CCOCC3)cc2)n2c1CN(C)CCC2)C(C)(C)C [Compound 401, (S)-N-(3,3-dimethyl-1-(methylamino)-1-oxobutan-2-yl)-8-methyl-3-(4-(morpholine-4-carbonyl)phenyl)-6,7,8,9-tetrahydro-5H-imidazo[1,5-a][1,4]diazepine-1-carboxamide] |  | < 5.00 | < 5.00 | 
6 | CNC(=O)[C@@H](NC(=O)c1nc(-c2ccncc2)n2c1CN(C)CCC2)C(C)(C)C [Compound 402, (S)-N-(3,3-dimethyl-1-(methylamino)-1-oxobutan-2-yl)-8-methyl-3-(pyridin-4-yl)-6,7,8,9-tetrahydro-5H-imidazo[1,5-a][1,4]diazepine-1-carboxamide] | + | < 5.00 |  | 
7 | CNC(=O)[C@@H](NC(=O)c1nc(-c2ccccc2C(C)C)n2c1CN(C)CCC2)C(C)(C)C [Compound 403, (S)-N-(3,3-dimethyl-1-(methylamino)-1-oxobutan-2-yl)-3-(2-isopropylphenyl)-8-methyl-6,7,8,9-tetrahydro-5H-imidazo[1,5-a][1,4]diazepine-1-carboxamide] | + | < 5.00 |  | 
8 | CNC(=O)[C@@H](NC(=O)c1nc(-c2ccc(OC)c(F)c2)n2c1CN(C)CCC2)C(C)(C)C [Compound 404, (S)-N-(3,3-dimethyl-1-(methylamino)-1-oxobutan-2-yl)-3-(3-fluoro-4-methoxyphenyl)-8-methyl-6,7,8,9-tetrahydro-5H-imidazo[1,5-a][1,4]diazepine-1-carboxamide] |  | < 5.00 | < 5.00 | 
9 | CNC(=O)[C@@H](NC(=O)c1nc(-c2cc(C(N)=O)ccc2F)n2c1CN(C)CCC2)C(C)(C)C [Compound 405, (S)-3-(5-carbamoyl-2-fluorophenyl)-N-(3,3-dimethyl-1-(methylamino)-1-oxobutan-2-yl)-8-methyl-6,7,8,9-tetrahydro-5H-imidazo[1,5-a][1,4]diazepine-1-carboxamide] |  |  |  | EC50 ([1]; groups >100 nM-10 μM and >10 μM, cAMP, CHO-K1 hCB1, read-out: EC50 HCB1): > 10000 nM; EC50 ([2]; groups >100 nM-10 μM and >10 μM, cAMP, CHO-K1 rCB2, read-out: EC50 RCB2): > 10000 nM
10 | CNC(=O)c1cc(-c2nc(C(=O)N[C@H](C(=O)NC)C(C)(C)C)c3n2CCCN(C)C3)ccc1F [Compound 406, (S)-N-(3,3-dimethyl-1-(methylamino)-1-oxobutan-2-yl)-3-(4-fluoro-3-(methylcarbamoyl)phenyl)-8-methyl-6,7,8,9-tetrahydro-5H-imidazo[1,5-a][1,4]diazepine-1-carboxamide] | + | < 5.00 |  | 
11 | CNC(=O)[C@@H](NC(=O)c1nc(-c2cccc(-c3nnc(C)o3)c2)n2c1CN(C)CCC2)C(C)(C)C [Compound 407, (S)-N-(3,3-dimethyl-1-(methylamino)-1-oxobutan-2-yl)-8-methyl-3-(3-(5-methyl-1,3,4-oxadiazol-2-yl)phenyl)-6,7,8,9-tetrahydro-5H-imidazo[1,5-a][1,4]diazepine-1-carboxamide] |  | < 5.00 | < 5.00 | 
12 | CNC(=O)c1ccc(-c2nc(C(=O)N[C@H](C(=O)NC)C(C)(C)C)c3n2CCCN(C)C3)cc1 [Compound 408] |  | < 5.00 | < 5.00 | 
13 | CNC(=O)[C@@H](NC(=O)c1nc(-c2cccc(S(C)(=O)=O)c2)n2c1CN(C)CCC2)C(C)(C)C [Compound 409] | − | < 5.00 |  | 
14 | CNC(=O)[C@@H](NC(=O)c1nc(-c2ccc(S(=O)(=O)N(C)C)cc2)n2c1CN(C)CCC2)C(C)(C)C [Compound 410, (S)-N-(3,3-dimethyl-1-(methylamino)-1-oxobutan-2-yl)-3-(4-(N,N-dimethylsulfamoyl)phenyl)-8-methyl-6,7,8,9-tetrahydro-5H-imidazo[1,5-a][1,4]diazepine-1-carboxamide] |  | < 5.00 | < 5.00 | 
15 | CNC(=O)[C@@H](NC(=O)c1nc(-c2ccc(F)c(C(=O)O)c2)n2c1CN(C)CCC2)C(C)(C)C [Compound 411] |  | < 5.00 | < 5.00 | 
16 | CNC(=O)[C@@H](NC(=O)c1nc(-c2cccc(C(=O)N(C)C)c2)n2c1CN(C)CCC2)C(C)(C)C [Compound 412, (S)-N-(3,3-dimethyl-1-(methylamino)-1-oxobutan-2-yl)-3-(3-(dimethylcarbamoyl)phenyl)-8-methyl-6,7,8,9-tetrahydro-5H-imidazo[1,5-a][1,4]diazepine-1-carboxamide] |  | < 5.00 | < 5.00 | 
17 | CNC(=O)[C@@H](NC(=O)c1nc(-c2ccccc2-c2ccccc2)n2c1CN(C)CCC2)C(C)(C)C [Compound 413, (S)-3-(biphenyl-2-yl)-N-(3,3-dimethyl-1-(methylamino)-1-oxobutan-2-yl)-8-methyl-6,7,8,9-tetrahydro-5H-imidazo[1,5-a][1,4]diazepine-1-carboxamide] |  | < 5.00 | < 5.00 | 
18 | CNC(=O)[C@@H](NC(=O)c1nc(-c2ccc(C(C)(C)C)cc2)n2c1CN(C)CCC2)C(C)(C)C [Compound 414, (S)-3-(4-tert-butylphenyl)-N-(3,3-dimethyl-1-(methylamino)-1-oxobutan-2-yl)-8-methyl-6,7,8,9-tetrahydro-5H-imidazo[1,5-a][1,4]diazepine-1-carboxamide] | − | < 5.00 |  | 
19 | CNC(=O)[C@@H](NC(=O)c1nc(-c2ccc(C(C)=O)cc2)n2c1CN(C)CCC2)C(C)(C)C [Compound 415, (S)-3-(4-acetylphenyl)-N-(3,3-dimethyl-1-(methylamino)-1-oxobutan-2-yl)-8-methyl-6,7,8,9-tetrahydro-5H-imidazo[1,5-a][1,4]diazepine-1-carboxamide] |  | < 5.00 | < 5.00 | 
20 | CNC(=O)[C@@H](NC(=O)c1nc(-c2cc(F)cc(C(N)=O)c2)n2c1CN(C)CCC2)C(C)(C)C [Compound 416, (S)-3-(3-carbamoyl-5-fluorophenyl)-N-(3,3-dimethyl-1-(methylamino)-1-oxobutan-2-yl)-8-methyl-6,7,8,9-tetrahydro-5H-imidazo[1,5-a][1,4]diazepine-1-carboxamide] | + | < 5.00 |  | 
21 | CNC(=O)[C@@H](NC(=O)c1nc(-c2cccc3ccccc23)n2c1CN(C)CCC2)C(C)(C)C [Compound 417, (S)-N-(3,3-dimethyl-1-(methylamino)-1-oxobutan-2-yl)-8-methyl-3-(naphthalen-1-yl)-6,7,8,9-tetrahydro-5H-imidazo[1,5-a][1,4]diazepine-1-carboxamide] | + | < 5.00 |  | 
22 | CNC(=O)[C@@H](NC(=O)c1nc(-c2cc(OC)cc(C(F)(F)F)c2)n2c1CN(C)CCC2)C(C)(C)C [Compound 418, (S)-N-(3,3-dimethyl-1-(methylamino)-1-oxobutan-2-yl)-3-(3-methoxy-5-(trifluoromethyl)phenyl)-8-methyl-6,7,8,9-tetrahydro-5H-imidazo[1,5-a][1,4]diazepine-1-carboxamide] | − | < 5.00 |  | 
23 | CNC(=O)[C@@H](NC(=O)c1nc(-c2ccc(-c3ccccc3)c(F)c2)n2c1CN(C)CCC2)C(C)(C)C [Compound 419, (S)-N-(3,3-dimethyl-1-(methylamino)-1-oxobutan-2-yl)-3-(2-fluorobiphenyl-4-yl)-8-methyl-6,7,8,9-tetrahydro-5H-imidazo[1,5-a][1,4]diazepine-1-carboxamide] |  | < 5.00 | < 5.00 | 
24 | CNC(=O)[C@@H](NC(=O)c1nc(-c2ccc(NS(C)(=O)=O)cc2)n2c1CN(C)CCC2)C(C)(C)C [Compound 420, (S)-N-(3,3-dimethyl-1-(methylamino)-1-oxobutan-2-yl)-8-methyl-3-(4-(methylsulfonamido)phenyl)-6,7,8,9-tetrahydro-5H-imidazo[1,5-a][1,4]diazepine-1-carboxamide] | − | < 5.00 |  | 
